According to publication PMC4502315, “High Potency of a Novel Resveratrol Derivative, 3,3′,4,4′-Tetrahydroxy-trans-stilbene, against Ovarian Cancer Is Associated with an Oxidative Stress-Mediated Imbalance between DNA Damage Accumulation and Repair” (Oxidative Medicine and Cellular Longevity, 2015):

Assays:
Type in all cases: cell-based, human
HPMCs = assay: ROS production (H2DCFDA), HPMCs; details: 24 h, percentage of control cells
Description: ROS production was assessed in cells probed with a fluorescent dye, 2′,7′-dichlorodihydrofluorescein diacetate (H2DCFDA; 5 μM) (Molecular Probes, Eugene, USA) for 45 min at 37°C. Fluorescence intensity in cell lysates was monitored in a Victor2 spectrofluorometer with excitation at 485 nm and emission at 535 nm.

[1] = test system: superoxide dismutase (SOD); assay: SOD activity in cell lysates, SKOV-3; details: 24 h, 10, 50, 100 μM tested
Description: Total activity of superoxide dismutase (SOD) was measured in cell lysates with a commercially available kit (R&D Systems Europe, Abingdon, UK), while the activity of catalase (CAT) was estimated by using the OxiSelect Catalase Activity Assay Kit (Cell Biolabs Inc., San Diego, CA, USA). Both assays were performed according to the manufacturer's instructions.

SKOV-3 cells [2] = assay: Oxidative DNA damage (8-OH-dG immunoassay), SKOV-3; details: 24 h, 10, 50, 100 μM tested
Description: (§1) Oxidative DNA damage was assessed by measuring the 8-OH-dG concentration with a competitive immunoassay (Cell Biolabs Inc.), as per manufacturer's instructions. The efficiency of 8-OH-dG repair was estimated after cell recovery for 24 h in standard growth medium. In order to examine the activity of DNA glycosylase I, reverse transcription PCR was performed. RNA extraction was carried out using the RNA Bee (Tel-Test, Friendswood, Texas, USA) and purified according to the manufacturer's protocol. One microgram of RNA was reverse transcribed into cDNA with random hexamer primers, and cDNA was subjected to PCR. The profile of the replication cycles was denaturation at 94°C for 50 s, annealing at 58°C for 50 s, and polymerization at 72°C for 1 min. In each reaction, the expression of glyceraldehyde-3-phosphate dehydrogenase (GAPDH) served as the internal control. The primers used for PCR were as follows: hOGG1 forward, 5′-[…]-3′; hOGG1 reverse, 5′-TAGCCCGCCCTGTTCTTC-3′ designed to amplify a 551-bp region; GAPDH forward, 5′-CCATGGAGAAGGCTGGGG-3′; and GAPDH reverse 5′-[…]-3′ designed to amplify a 194-bp region (total number of cycles: 28). The PCR products were separated on 3% agarose gels stained with ethidium bromide and then visualized.

OVCAR-3 cells [3] = assay: Cell proliferation (CFDA SE), OVCAR-3; details: low-density cultures, 24 h, 10, 50, 100 μM tested
Description: (§2) Cell proliferative potential was determined using Cell Proliferation Kit I (PromoKine, Heidelberg, Germany) according to the manufacturer's instructions. In brief, cells were probed for 15 min with 5-(and 6)-carboxyfluorescein diacetate, a succinimidyl ester (CFDA SE; 2 μM) which diffuses into cells, covalently binds to proteins, and becomes fluorescent upon its hydrolysis by intracellular esterases. The fluorescence emitted by the cells (the dye is inherited by the daughter cells through successive divisions) was recorded using a Victor2 spectrofluorometer (Perkin-Elmer, Turku, Finland) with excitation at 435 nm and emission at 535 nm.

SKOV-3 cells [4] = assay: Cell proliferation (CFDA SE), SKOV-3; details: low-density cultures, 24 h, 10, 50, 100 μM tested
Description: as §2

OVCAR-3 cells [5] = assay: SA-β-Gal activity (senescence), OVCAR-3; details: 24 h, 10, 50, 100 μM tested
Description: The activity of SA-β-Gal in the cell extracts was quantified by measuring the rate of conversion of 4-methylumbelliferyl-β-D-galactopyranoside to 4-methylumbelliferone, as described in [19]. In order to visualize expression of the enzyme in the cancer cell cytoplasm, cytochemical staining for SA-β-Gal was performed according to Dimri et al..

[6] = MTT viability assay, HOSE cells; details: human, percentage of control cells
Description: (§3) Cell viability was assessed with the MTT test and with lactate dehydrogenase (LDH) release assay. As per the MTT method, normal and cancer cells were seeded into 96-well plates at high density and allowed to attach overnight. Then they were incubated in a medium containing 1.25 mg/mL of the MTT salt [3-(4,5-dimethylthiazol-2-yl)-2,5-diphenyltetrazolium bromide] for 24 h at 37°C. The generated formazan was solubilized with 20% sodium dodecyl sulphate and 50% N,N-dimethylformamide. Absorbance of the converted dye was recorded at 595 nm with a reference wavelength of 690 nm.
(§4) In order to examine the effect of 3,3′,4,4′-THS on the viability of ovarian cancer cells and to compare its activity with RVT, subconfluent cultures of A2780, OVCAR-3, and SKOV-3 cells were subjected to a wide range of stilbene concentrations (0–500 μM) for 24 h; then MTT and LDH release assays were performed.

[7] = MTT viability assay, HPMCs; details: human, percentage of control cells
Description: as §3, §4

[8] = LDH release assay, HOSE cells; details: human, percentage of control cells
LDH release assay, HPMCs = details: human, percentage of control cells
[9] = test system: DNA glycosylase I (hOgg1); assay: DNA glycosylase I (hOgg1) mRNA expression (RT-PCR), ovarian cancer cells; details: all three cancer cell lines; after preincubation with stilbene, 24-h recovery
Description: as §1

Compound	ROS (HPMCs; 10 μM)	ROS (HPMCs; 50 μM)	ROS (HPMCs; 100 μM)	SOD activity, effect in words [1]	concentration of 8-OH-dG (oxidative DNA damage), effect in words (SKOV-3 cells [2])	proliferation, effect in words (OVCAR-3 cells [3])	proliferation, effect in words (SKOV-3 cells [4])	SA-β-Gal activity (senescence), effect in words (OVCAR-3 cells [5])	also measured
Oc1ccc(/C=C/c2cc(O)cc(O)c2)cc1 [RVT, 3,4′,5-trihydroxy-trans-stilbene, reference compound]	108 ± 4^∗ %	106 ± 11%	105 ± 7%	failed to affect SOD activity	induced DNA injury in A2780 and SKOV-3 at 50 and 100 μM	effectively reduced the expandability	such a low dose was effective in SKOV-3 cultures only	cellular senescence was elicited	
Oc1ccc(/C=C/c2ccc(O)c(O)c2)cc1O [3,3′,4,4′-THS, 3,3′,4,4′-tetrahydroxy-trans-stilbene]	104 ± 4%	102 ± 3%	82 ± 1^∗# %	downregulated it at 50 and 100 μM	increasing the concentration of 8-OH-dG in the OVCAR-3 and SKOV-3 cells starting from a dose of 10 μM	evident at as low a concentration as 10 μM	evident at as low a concentration as 10 μM	significantly greater than those of RVT at each concentration	viability at 24 h, 10 µM ([6]; 10 μM): 105 ± 2%; viability at 24 h, 50 µM ([6]; 50 μM): 100 ± 4%; viability at 24 h, 100 µM ([6]; 100 μM): 107 ± 2%; viability at 24 h, 10 µM ([7]; 10 μM): 108 ± 14%; viability at 24 h, 50 µM ([7]; 50 μM): 100 ± 4%; viability at 24 h, 100 µM ([7]; 100 μM): 102 ± 2%; viability at 24 h, 10 µM ([8]; 10 μM): 101 ± 2%; viability at 24 h, 50 µM ([8]; 50 μM): 100 ± 4%; viability at 24 h, 100 µM ([8]; 100 μM): 102 ± 2%; viability at 24 h, 10 µM (LDH release assay, HPMCs; 10 μM): 101 ± 2%; viability at 24 h, 50 µM (LDH release assay, HPMCs; 50 μM): 100 ± 4%; viability at 24 h, 100 µM (LDH release assay, HPMCs; 100 μM): 102 ± 2%; hOgg1 mRNA expression during recovery, in words [9]: remarkably lower as compared to values characterizing cells subjected to RVT
